Where two headings read alike, the source gives them in different places.
Tests used:
p53 = assay: p21 luciferase assay (p53 inhibition) in U20S cells upon doxorubicin; assay type: cell-based; conditions: for inhibition at 50 µM / % Inhibition (p53 inhibition, p21 luciferase activity): compounds at 50 μM, doxorubicin-treated U20S cells; for Ability to inhibit p53-dependent p21 luciferase activity / p21 expression (SAR, words): compared with lead / ortho-methyl analogs
Protocol: U20S Cells were transfected with p21 luciferase (1 μg) and renilla luciferase (100 ng) vectors in 6 well plate format using Fugene 6 (Roche). Briefly, total of 1.1 micrograms of vector was incubated with […] of Fugene 6 reagent for 30 min. After 3-4 hours of transfection, cell were treated with compounds for overnight, and then exposed to 300 nanogram of doxorubicin for next 24 hours. In these experiments, DMSO, transfected cells with empty vector and cell without doxorubicin were used as controls. DMSO concentration is maintained at 0.01%. Transfected cells with doxorubicin treatment were used as positive control. The luciferase activity was estimated by following the manufacturer's instruction (Promega) in a luminometer. […] The inhibitory activity (IC50) of a small molecule on p21 luciferase activity was obtained from the average of three biological replicates using PRISM software.

NF-κB = assay: TNFα-induced NF-kB activation, luciferase in NF-kB response element HEK293 cells; assay type: cell-based; conditions: Homo sapiens; NF-κB-response element stabilized HEK293 cells; read-out: IC50, inhibition of TNFα-induced activation of NF-κB
Protocol: FIG. 5. […] A. NF-kB activation by TNFa (10 ng/mL). HEK 293 cells ([…]) in a 24-well plate were stabilized with NF-kB response element (NF-kB_RE) was treated with TNF. Twenty-four hours after the treatment, the cells were harvested and lysed, and luciferase activity was determined.
Dysregulation of macrophages and T cell functions trigger inflammatory responses contributing to IBD progression. Given its pro-inflammatory functions, NF-κB inhibition has anti-inflammatory effects, as shown by inhibition of IKK activity, which prevents phoshorylation and release of IκBα from NF-κB.

BRD4-1 = BRD4-1 (Homo sapiens, UniProt O60885); assay: Bromodomain binding affinity (tryptophan fluorescence binding assay)
Protocol: (§1) Monitoring change of intrinsic tryptophan fluorescence of a protein induced by ligand binding can be used to determine ligand binding affinity (KD). This assay was used to assess ligand binding to the CBP BRD and ischemin binding to the BRDs from other transcription proteins as follows. The chemical ligands were prepared at 500-850 μM in the PBS buffer. Their serial dilutions by a factor of 1.5 in a 384-wells black plate were carried out using a Tecan EVO200 liquid handler down to a concentration of 0.5 nM. Protein was added to the compounds to a final concentration in each well of 5 μM. Tryptophan fluorescence of the protein was measured (with excitation set at 280 nm, emission at 350 nm) on a Tecan Safire2 reader. Inner filter correction was introduced to take into account the possible intrinsic fluorescence of the compound. […] KD was calculated based on the curve fitting.

PCAF = target: T1, PCAF (Homo sapiens, UniProt Q92831); assay: as above
T1 sequence (Q92831 723-827 limits assumed): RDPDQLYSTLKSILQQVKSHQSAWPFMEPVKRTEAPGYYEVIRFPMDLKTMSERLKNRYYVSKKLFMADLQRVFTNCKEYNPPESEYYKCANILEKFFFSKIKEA
Protocol: as §1

BRD4-2 = BRD4-2 (Homo sapiens, UniProt O60885); assay: as above
Protocol: as §1

CBP BRD = CBP BRD (Homo sapiens, UniProt Q92793); assay: as above
Protocol: as §1

melanoma cells = assay: Melanoma cell proliferation in vitro; assay type: cell-based; conditions: FIG. 6, FIG. 7
melanocytes = assay: Proliferation of normal melanocytes; assay type: cell-based; conditions: in vitro; FIG. 6
U20S cells = assay: BRDU incorporation / cell cycle analysis; assay type: cell-based; conditions: for Prevention of doxorubicin-induced cell cycle arrest (decrease of BRDU incorporation): compound 50 μM, doxorubicin 5 μM, U20S cells
Protocol: BRDU incorporation assay for cell cycle evaluation was performed in 96 well plates using calorimetric based kit from Calbiochem (Cat# QiA58). Hundred microliter of 1×10^5/ml cells were plated in DMEM media (Mediatech) with 10% fetal bovine serum (FBS). After 12 hours cells were treated with compounds ischemin and MS 119 (50 μM) with or without doxorubicin treatment (5 μM). The controls were DMSO and untreated cells. BRDU was added for 24 hours treatment. After 24 hours cells were fixed and treated with anti-BRDU antibody. After washings, the wells were incubated with peroxidase. After final wash, the color was developed using TMB as substrate and the reaction was stopped with stop solution and optical density was estimated at 450 nm.
DNA damage induced by doxorubicin leads to p53 stimulated cellular responses including cell cycle arrest, damage repair, and apoptosis. To determine the effect of ischemin on dividing U20S cells, U20S cells were treated with 5-bromo-2-deoxyuridine (BRDU) and the incorporated BRDU during in DNA synthesis was measured using an ELISA assay.

[1] = Table 4, read-out: BrD4-1 (μM), bromodomain binding
[2] = Table 4, read-out: PCAF (μM), bromodomain binding
[3] = Table 4, read-out: BrD4-2 (μM), bromodomain binding
[4] = Table 4, read-out: CBP (μM), bromodomain binding
[5] = Table 1, read-out: Binding Affinity, Kd BRD4-1
[6] = Table 1, read-out: Binding Affinity, Kd BRD4-2

CBP BRD, sequence (Q92793 1085-1192 limits assumed): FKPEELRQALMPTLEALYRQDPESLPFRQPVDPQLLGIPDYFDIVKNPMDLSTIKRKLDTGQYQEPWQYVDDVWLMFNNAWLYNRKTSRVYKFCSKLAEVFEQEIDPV

Cc1cc(C)c(S(=O)(=O)O)cc1/N=N/c1cc(C)c(O)c(C)c1 [MS109, 5-(3,5-dimethyl-4-hydroxyphenylazo)-2,4-dimethylbenzenesulfonic acid] showed an inhibition at 50 µM (p53) of 60.1%.
O=C(O)c1cc(/N=N/c2ccc(S(=O)(=O)Nc3ccccn3)cc2)ccc1O [Sulfasalazine (MS0123028), Sulfasalazine, reference compound] showed an IC50 (NF-κB) of 0.22 µM, a Kd (BRD4-1; [1]) of 54 µM and a Kd (BRD4-1; Table 5, read-out: BrD4-1) of 54 µM. For the same molecule, the Kd (PCAF; [2]) was 88 µM, the Kd (PCAF; Table 5, read-out: PCAF) was 88 µM and the Kd (BRD4-2; [3]) was 54 µM. It also gave a Kd (CBP BRD; [4]) of 82 µM and a Kd (CBP BRD; Table 5, read-out: CBP) of 82 µM.
In the case of Cc1cc(/C=C/c2ccc(S(=O)(=O)Nc3ccccn3)cc2)c(NC(=O)OC(C)(C)C)cc1O [CM0000278], the Kd (BRD4-1; [5]) is reported as 1.5 µM and the Kd (BRD4-2; [6]) is reported as < 1 µM.
For Cc1cc(/C=C/c2ccc(S(=O)(=O)Nc3ccccn3)cc2)c(N)cc1O [CM0000279], the “Inhibition of melanoma cell proliferation” value (melanoma cells) was “capable of inhibiting melanoma cell proliferation”, the Kd (BRD4-1; [5]) was 2.1 µM and the Kd (BRD4-1; [1]) was 2 µM. The Kd (BRD4-2; [6]) was < 1 µM and the Kd (BRD4-2; [3]) was < 1 µM.
In the case of Cc1cc(/N=N/c2ccc(S(=O)(=O)Nc3ccccn3)cc2)c(N)cc1O [MS0129436], the IC50 (NF-κB) is reported as 0.057 µM, the “Inhibition of melanoma cell proliferation” value (melanoma cells) is reported as “inhibits proliferation” and the Kd (PCAF; [2]) is reported as 6.8 µM. It also gave a Kd (PCAF; Table 5, read-out: PCAF) of 8.6 µM, a Kd (CBP BRD; [4]) of 14 µM and a Kd (CBP BRD; Table 5, read-out: CBP) of 14 µM. The “Effect on normal melanocytes” value (melanocytes) was “no effect”.
With Cc1cc(/N=N/c2ccc(S(=O)(=O)O)cc2)cc(C)c1O [MS451] the “Ability to inhibit p53-dependent p21 luciferase activity / p21 expression (SAR, words)” value (p53) was “marked increase” and the inhibition at 50 µM (p53) was 87.4%.
For Cc1cc(O)c(N)cc1/N=N/c1cc(S(=O)(=O)O)c(C)cc1C [MS135], the inhibition at 50 µM (p53) was 54.8%.
For Cc1cc(C)c(S(=O)(=O)O)cc1/N=N/c1ccc(O)c(Cl)c1 [MS131, 5-(3-chloro-4-hydroxyphenylazo)-2,4-dimethylbenzenesulfonic acid], the inhibition at 50 µM (p53) was 49.7%.
CC(C)c1cc(N=Nc2ccc(S(=O)(=O)O)cc2)cc(C(C)C)c1O [MS105, 4-(4-hydroxy-3,5-diisopropyl-phenylazo)-benzenesulfonic acid] was tested, and the “Ability to inhibit p53-dependent p21 luciferase activity / p21 expression (SAR, words)” value (p53) was “reduced activity” and the inhibition at 50 µM (p53) was 26.4%.
In the case of “5-(4-hydroxy-3,5-isopropyl-phenylazo)-2,4-dimethylbenzenesulfonic acid [MS128]”, the “% Inhibition (p53 inhibition, p21 luciferase activity)” value (“% Inhibition” for short) (p53) is reported as 47.2%.
Cc1cc(/N=N/c2ccc(S(=O)(=O)O)cc2)c(C)c(C)c1O [MS103, 4-(4-hydroxy-2,3,5-trimethyl-phenylazo)-benzenesulfonic acid] was tested, and the inhibition at 50 µM (p53) was 38.9%.
In the case of Cc1cc(C)c(S(=O)(=O)O)cc1N=Nc1cc(C)c(O)c(C(C)C)c1 [MS129, 5-(4-hydroxy-3-isopropyl-5-methyl-phenylazo)-2,4-dimethylbenzenesulfonic acid], the inhibition at 50 µM (p53) is reported as 44.6%.
Cc1cc(NNc2ccc(S(=O)(=O)NCc3ccc(C(F)(F)F)cc3)cc2)c(N)cc1O [MS0129433] was tested, and the IC50 (NF-κB) was 0.057 µM, the Kd (BRD4-1; Table 5, read-out: BrD4-1) was 4.5 µM and the Kd (PCAF; Table 5, read-out: PCAF) was > 100 µM. For the same molecule, the Kd (BRD4-2; Table 5, read-out: BrD4-2) was 21 µM and the Kd (CBP BRD; Table 5, read-out: CBP) was > 100 µM.
Cc1cc(/N=N/c2ccc(S(=O)(=O)O)cc2)ccc1O [MS450] was tested, and the “Ability to inhibit p53-dependent p21 luciferase activity / p21 expression (SAR, words)” value (p53) was “marked increase” and the inhibition at 50 µM (p53) was 85.6%.
With Cc1cc(O)cc(C)c1/N=N/c1ccc(S(=O)(=O)O)cc1 [MS100, 4-(4-hydroxy-2,6-dimethyl-phenylazo)-benzenesulfonic acid] the inhibition at 50 µM (p53) was 36.4%.
With Cc1cc(C#Cc2ccc(S(=O)(=O)Nc3ccccn3)cc2)cc(C)c1O [CM0000254] the Kd (BRD4-1; [5]) was < 1 µM and the Kd (BRD4-2; [6]) was 1.6 µM.
In the case of CCCc1cc(N=Nc2cc(S(=O)(=O)O)c(C)cc2C)ccc1O [MS126, 5-(4-hydroxy-3-propyl-phenylazo)-2,4-dimethylbenzenesulfonic acid], the inhibition at 50 µM (p53) is reported as 93.5%.
CCC(=O)c1cc(N=Nc2cc(S(=O)(=O)O)c(C)cc2C)ccc1O [MS127, 5-(4-hydroxyphenylazo-3-(1-propanone))-2,4-dimethylbenzenesulfonic acid] was tested, and the “% Inhibition” value (p53) was 86.8%.
Cc1cc(O)cc(C)c1/N=N/c1cc(Cl)c(O)c(S(=O)(=O)O)c1 [MS153] gave an inhibition at 50 µM (p53) of 39%.
With Cc1cc(C)c(S(=O)(=O)O)cc1/N=N/c1c(C)cc(O)cc1C [MS119, 5-(2,6-dimethyl-4-hydroxyphenylazo)-2,4-dimethylbenzenesulfonic acid] the “Prevention of doxorubicin-induced cell cycle arrest (decrease of BRDU incorporation)” value (U20S cells) was “prevents a doxorubicin-induced decrease of BRDU incorporation”, the “Prevention of doxorubicin-induced cell cycle arrest (decrease of BRDU incorporation)” value (U20S cells; listed as MS 119) was “almost completely prevented” and the “Inhibition of p21 luciferase activity” value (p53; U20S cells, FIG. 1A) was “Dose-dependent inhibition”. It also gave an inhibition at 50 µM (p53) of 54%.
CCc1cc(/N=N/c2ccc(S(=O)(=O)O)cc2)ccc1O [MS113, 4-(4-hydroxy-3-ethyl-phenylazo)-benzenesulfonic acid] was tested, and the “Ability to inhibit p53-dependent p21 luciferase activity / p21 expression (SAR, words)” value (p53) was “reduced activity” and the inhibition at 50 µM (p53) was 25.7%.
CCc1cc(/N=N/c2cc(S(=O)(=O)O)c(C)cc2C)ccc1O [MS124, 5-(3-ethyl-4-hydroxyphenylazo)-2,4-dimethylbenzenesulfonic acid] gave an inhibition at 50 µM (p53) of 25%.
For COc1cccc2c1C(=O)c1c(O)c3c(c(O)c1C2=O)C[C@@](O)(C(=O)CO)C[C@@H]3O[C@H]1C[C@H](N)[C@H](O)[C@H](C)O1 [doxorubicin, reference compound], the “Decrease of BRDU incorporation” value (U20S cells; doxorubicin treatment of U20S cells) was 45%.
In the case of Cc1cc(N=Nc2ccc(S(=O)(=O)O)cc2)cc(C(C)(C)C)c1O [MS111, 4-(4-hydroxy-3-t-butyl-5-methyl-phenylazo)-benzenesulfonic acid], the “Ability to inhibit p53-dependent p21 luciferase activity / p21 expression (SAR, words)” value (p53) is reported as “reduced activity” and the inhibition at 50 µM (p53) is reported as 22.8%.
Cc1cc(/N=N/c2cc(S(=O)(=O)O)c(C)cc2C)c(C)cc1O [MS118] gave an inhibition at 50 µM (p53) of 49.7%.
With Cc1cc(C)c(S(=O)(=O)O)cc1/N=N/c1cc(C)c(O)c(C)c1C [MS146, 5-(2,3,5-trimethyl-4-hydroxyphenylazo)-2,4-dimethylbenzenesulfonic acid] the inhibition at 50 µM (p53) was 30.8%.
“5-(4-hydroxy-3-methyl-5-propene-phenylazo)-2,4-methylbenzenesulfonic acid [MS130]” was tested, and the “% Inhibition” value (p53) was 40.4%.
With Cc1cc(/C=C/c2ccc(S(=O)(=O)Nc3ccccn3)cc2)cc(C)c1O [CM0000255] the “Inhibition of melanoma cell proliferation” value (melanoma cells) was “capable of inhibiting melanoma cell proliferation”, the Kd (BRD4-1; [5]) was < 1 µM and the Kd (BRD4-1; [1]) was < 1 µM. The Kd (PCAF; Table 1, read-out: Binding Affinity, Kd PCAF) was < 1 µM, the Kd (PCAF; [2]) was < 1 µM and the Kd (BRD4-2; [6]) was < 1 µM. The Kd (BRD4-2; [3]) was < 1 µM, the Kd (CBP BRD; Table 1, read-out: Binding Affinity, Kd CBP) was 32.8 µM and the Kd (CBP BRD; [4]) was 33 µM.
In the case of Cc1cc(/N=N/c2ccc(S(=O)(=O)Nc3ccccn3)cc2)cc(C)c1O [MS0129435], the Kd (BRD4-1; [1]) is reported as 1.3 µM, the Kd (PCAF; [2]) is reported as 4.5 µM and the Kd (BRD4-2; [3]) is reported as 2.4 µM. The Kd (CBP BRD; [4]) was > 100 µM.
For Cc1cc(/N=N/c2ccc(S(=O)(=O)O)cc2)c(C)cc1O [MS101, 4-(4-hydroxy-2,5-dimethyl-phenylazo)-benzenesulfonic acid], the “Ability to inhibit p53-dependent p21 luciferase activity / p21 expression (SAR, words)” value (p53) was “marked increase” and the inhibition at 50 µM (p53) was 82.9%.
